System: HT-29 human colorectal carcinoma cells
Assay: Cell growth inhibition assay, resazurin (Table 3.2)
Format: cell-based
Details: HT-29, read-out: EC50 (M) Mean
Protocol: The cytotoxic effects of various derivatives of dehydrophenylahistin against HT-29 human colorectal carcinoma cells were determined.
HT-29 cells (ATCC; HTB-38) were maintained in ATCC recommended culture media and cultured in an incubator at 37° C. in 5% CO2 and 95% humidified air.
For cell growth inhibition assays, HT-29 cells were seeded at 5×10^3 cells/well in 90 μl complete media into a Corning 3904 black-walled, clear-bottom tissue culture plates and the plates were incubated overnight to allow cells to establish and enter log phase growth. 20 mM stock solutions of compounds were prepared in 100% DMSO and stored at −80° C. 10× concentrated serial dilutions of the compounds were prepared in culture medium for final concentrations ranging from 20 μM to […]. Ten μl volumes of the 10× serial dilutions were added to the test wells in triplicate and the plates returned to the incubator for 48 hours. The final concentration of DMSO was 0.25% in all samples.
Following 48 hours of drug exposure, 10 μl of 0.2 mg/ml resazurin (obtained from Sigma-Aldrich Chemical Co.) in Mg^2+, Ca^2+ free phosphate buffered saline was added to each well and the plates were returned to the incubator for 3-4 hours. […] Resazurin dye in medium without cells was used to determine the background, which was subtracted from the data for all experimental wells.

Structure (SMILES) | EC50
CC(C)(C)c1ocnc1/C=c1\[nH]c(=O)/c(=C/c2cccc(C(F)(F)F)c2)[nH]c1=O [Compound 2488, tBu-Oxadelta-PLH-m-CF3] | 2.49e-07 M
Cc1cccc(/C=c2\[nH]c(=O)/c(=C/c3ncoc3C(C)(C)C)[nH]c2=O)c1 [Compound 2466, tBu-Oxadelta-PLH-3-CH3] | 5.55e-08 M
CC(C)(C)c1ocnc1/C=c1\[nH]c(=O)/c(=C/c2cccs2)[nH]c1=O [Compound 2484, tBu-Oxadelta-PLH-2-thienyl] | 1.05e-07 M
CC(C)(C)c1ocnc1/C=c1\[nH]c(=O)/c(=C/c2cccc3ccccc23)[nH]c1=O [Compound 2464, tBu-Oxadelta-PLH-1-naphth] | 5.37e-08 M
CC(C)(C)c1ocnc1/C=c1\[nH]c(=O)/c(=C/c2ccc(Cl)o2)[nH]c1=O [Compound 2481, tBu-Oxadelta-PLH-5-Cl-2-furyl] | 2.56e-07 M
CC(C)(C)c1ocnc1/C=c1\[nH]c(=O)/c(=C/c2ccnc3ccccc23)[nH]c1=O [Compound 2500, tBu-oxadelta-PLH-4-quinoline] | 3.99e-07 M
Cc1cccc(/C=c2\[nH]c(=O)/c(=C/c3ncoc3C(C)(C)C)[nH]c2=O)c1C [Compound 2486, tBu-Oxadelta-PLH-2,3-diMe] | 1.43e-07 M
CC(C)(C)c1ocnc1/C=c1\[nH]c(=O)/c(=C/c2cccc(C(=O)c3ccccc3)c2)[nH]c1=O [Compound 2512, tBu-oxadelta-PLH-3-benzoyl] | 3.86e-09 M
CC(C)(C)c1ocnc1/C=c1\[nH]c(=O)/c(=C/c2cccc(Cl)c2)[nH]c1=O [Compound 2467, tBu-Oxadelta-PLH-3-Cl] | 5.41e-08 M
CC(C)(C)c1ocnc1/C=c1\[nH]c(=O)/c(=C/c2ccccn2)[nH]c1=O [Compound 2474, tBu-Oxadelta-PLH-2-Py] | > 6.32e-07 M
CC(C)(C)c1ocnc1/C=c1\[nH]c(=O)/c(=C/c2cccc([N+](=O)[O-])c2)[nH]c1=O [Compound 2479, tBu-Oxadelta-PLH-m-NO2] | 1.08e-07 M
CC(C)(C)c1ocnc1/C=c1\[nH]c(=O)/c(=C/c2cccc(Cl)c2Cl)[nH]c1=O [Compound 2468, tBu-Oxadelta-PLH-2,3-diCl] | 7.92e-08 M
C=Cc1cccc(/C=c2\[nH]c(=O)/c(=C/c3ncoc3C(C)(C)C)[nH]c2=O)c1 [Compound 2482, tBu-Oxadelta-PLH-m-vinyl] | 2.65e-08 M
COc1cccc(/C=c2\[nH]c(=O)/c(=C/c3ncoc3C(C)(C)C)[nH]c2=O)c1 [Compound 2462, tBu-Oxadelta-PLH-m-OMe] | 5.41e-08 M
Cc1oc(-c2ccccc2)cc1/C=c1\[nH]c(=O)/c(=C/c2ncoc2C(C)(C)C)[nH]c1=O [Compound 2505, tBu-oxadelta-PLH-2-Me-5-Ph-3-furyl] | > 6.32e-06 M
CC(C)(C)c1ocnc1/C=c1\[nH]c(=O)/c(=C/c2cc3ccccc3s2)[nH]c1=O [Compound 2510, tBu-oxadelta-PLH-2-benzothiophen] | > 2e-05 M
Cc1ccccc1/C=c1\[nH]c(=O)/c(=C/c2ncoc2C(C)(C)C)[nH]c1=O [Compound 2472, tBu-Oxadelta-PLH-o-Me] | 5.46e-08 M
CC(C)(C)c1ocnc1/C=c1\[nH]c(=O)/c(=C/c2cc(F)cc3c2OCOC3)[nH]c1=O [Compound 2511, tBu-oxadelta-PLH-7-fluoro-2,4-benzodioxine] | 2.39e-08 M
CC(C)(C)c1ocnc1/C=c1\[nH]c(=O)/c(=C/c2ccc(Br)o2)[nH]c1=O [Compound 2483, tBu-Oxadelta-PLH-5-Br-2-furyl] | 2.48e-07 M

Same assay, conditions: Table 3.2, HT-29 cells, read-out: EC50 (M) Mean

Structure (SMILES) | EC50
CC(C)(C)c1[nH]cnc1/C=c1\[nH]c(=O)/c(=C/c2cc(Cl)ccc2N)[nH]c1=O [Compound 2461, tBu-delta-PLH-5-Cl-2-NH2] | 2.95e-07 M
CC(C)(C)c1ocnc1/C=C1\NC(=O)[C@H](Cc2ccccc2)NC1=O [Compound 2513, tBu-oxa-PLH] | 9.24e-07 M

Further lines, results first:

EC50 | Structure (SMILES)
1.01e-07 M | CCOc1cccc(/C=c2\[nH]c(=O)/c(=C/c3ncoc3C(C)(C)C)[nH]c2=O)c1 [Compound 2471, tBu-Oxadelta-PLH-m-OEt]
5.37e-08 M | CC(C)(C)c1ocnc1/C=c1\[nH]c(=O)/c(=C/c2ccoc2)[nH]c1=O [Compound 2478, tBu-Oxadelta-PLH-3-furanyl]
8.63e-08 M | COc1cc(/C=c2\[nH]c(=O)/c(=C/c3ncoc3C(C)(C)C)[nH]c2=O)cc(OC)c1 [Compound 2469, tBu-Oxadelta-PLH-3,5-diOMe]
5.23e-06 M | CCOc1ccc2ccccc2c1/C=c1\[nH]c(=O)/c(=C/c2ncoc2C(C)(C)C)[nH]c1=O [Compound 2497, tBu-oxadelta-PLH-2-OEt-1-naphth]
5.59e-08 M | CC(C)(C)c1ocnc1/C=c1\[nH]c(=O)/c(=C/c2cccc(Br)c2)[nH]c1=O [Compound 2473, tBu-Oxadelta-PLH-3-Br]
2.18e-07 M | COc1ccccc1/C=c1\[nH]c(=O)/c(=C/c2ncoc2C(C)(C)C)[nH]c1=O [Compound 2485, tBu-Oxadelta-PLH-2-OMe]
> 6.32e-06 M | CC(C)(C)c1ocnc1/C=c1\[nH]c(=O)/c(=C/c2cn(S(=O)(=O)c3ccccc3)c3ccccc23)[nH]c1=O [Compound 2507, tBu-oxadelta-PLH-1-(Ph-sulfo)-3-indole]
1.24e-07 M | CC(C)(C)c1ocnc1/C=c1\[nH]c(=O)/c(=C/c2ccccc2[N+](=O)[O-])[nH]c1=O [Compound 2476, tBu-Oxadelta-PLH-2-NO2]
1.61e-07 M | Cc1ccsc1/C=c1\[nH]c(=O)/c(=C/c2ncoc2C(C)(C)C)[nH]c1=O [Compound 2480, tBu-Oxadelta-PLH-3-Me-2-thienyl]
4.86e-08 M | CC(C)(C)c1ocnc1/C=c1\[nH]c(=O)/c(=C/c2cccc(OC(F)(F)F)c2)[nH]c1=O [Compound 2477, tBu-Oxadelta-PLH-m-OCF3]
> 6.32e-06 M | CC(C)(C)c1ocnc1/C=c1\[nH]c(=O)/c(=C/c2c3ccccc3cc3ccccc23)[nH]c1=O [Compound 2499, tBu-oxadelta-PLH-9-anth]
5.4e-08 M | CC(C)(C)c1ocnc1/C=c1\[nH]c(=O)/c(=C/c2ccccc2Cl)[nH]c1=O [Compound 2465, tBu-Oxadelta-PLH-2-Cl]
9.48e-07 M | CC(C)(C)c1ocnc1/C=c1\[nH]c(=O)/c(=C/CCc2ccccc2)[nH]c1=O [Compound 2496, tBu-oxadelta-PLH-Ph-pr]
1.67e-06 M | COc1ccc2ccccc2c1/C=c1\[nH]c(=O)/c(=C/c2ncoc2C(C)(C)C)[nH]c1=O [Compound 2498, tBu-oxadelta-PLH-2-OMe-1-naphth]
2.78e-07 M | CC(C)(C)c1ocnc1/C=c1\[nH]c(=O)/c(=C/c2cc(Cl)cc(Cl)c2)[nH]c1=O [Compound 2470, tBu-Oxadelta-PLH-3,5-diCl]
7.93e-08 M | CC(C)(C)c1ocnc1/C=c1\[nH]c(=O)/c(=C/c2ccsc2)[nH]c1=O [Compound 2487, tBu-Oxadelta-PLH-3-thienyl]
4.66e-07 M | CC(C)(C)c1ocnc1/C=c1\[nH]c(=O)/c(=C/c2ccccc2F)[nH]c1=O [Compound 2475, tBu-Oxadelta-PLH-2-F]
1.16e-07 M | CC(C)(C)c1ocnc1/C=c1\[nH]c(=O)/c(=C\c2ccccc2)[nH]c1=O [Compound 2489, (E)-tBu-delta-PLH]
1.88e-06 M | CC(C)(C)c1ocnc1/C=c1\[nH]c(=O)/c(=C/c2ccc(-c3cccs3)s2)[nH]c1=O [Compound 2502, tBu-oxadelta-PLH-2,2′-bitio]

From patent publication US8129527B2, “Analogs of dehydrophenylahistins and their therapeutic use” (Nereus Pharmacuticals, Inc., priority 2006, dated 2012)
